In ChEMBL document CHEMBL3608237, “Novel inhibitor against Malassezia globosa LIP1 (SMG1), a potential anti-dandruff target” (Bioorg Med Chem Lett, 2015):
Active and inactive are the calls of the source. The rule behind the calls is not given here.

Tests used:
[1] = biological target: T1, Secreted mono- and diacylglycerol lipase LIP1 (Malassezia globosa (strain ATCC MYA-4612 / CBS 7966)(Dandruff-associated fungus), UniProt A8PUY1); test: Inhibition of Malassezia globosa CBS 7966 LIP1 using pNPC substrate
T1 sequence (A8PUY1 whole entry): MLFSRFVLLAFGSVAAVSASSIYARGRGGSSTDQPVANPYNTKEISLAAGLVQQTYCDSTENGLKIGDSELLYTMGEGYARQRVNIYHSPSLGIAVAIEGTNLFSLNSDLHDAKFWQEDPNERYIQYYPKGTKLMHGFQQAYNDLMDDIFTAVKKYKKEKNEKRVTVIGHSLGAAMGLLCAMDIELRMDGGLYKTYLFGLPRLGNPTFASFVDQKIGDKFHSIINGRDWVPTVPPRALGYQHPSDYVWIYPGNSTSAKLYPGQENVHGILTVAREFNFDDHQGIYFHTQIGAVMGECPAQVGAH

[2] = biological target: T2, Secreted mono- and diacylglycerol lipase LIP1 (Malassezia globosa (strain ATCC MYA-4612 / CBS 7966)(Dandruff-associated fungus)) (UniProt A8PUY1); test: Competitive inhibition of Malassezia globosa CBS 7966 LIP1 using pNPA substrate by Lineweaver-Burk plot method
T2 sequence (whole entry): T1 sequence (A8PUY1 whole entry)

[3] = biological target: T1, Secreted mono- and diacylglycerol lipase LIP1; test: Inhibition of Malassezia globosa CBS 7966 LIP1 using pNPA substrate
[4] = biological target: T1, Secreted mono- and diacylglycerol lipase LIP1; test: Inhibition of Malassezia globosa CBS 7966 LIP1 incubated for 1 hr using monoolein substrate

SMILES	IC50 [1]	inhibition [2]	IC50 [3]	IC50 [4]
O=C1c2ccccc2C(=O)N1CCSC(=S)N1CCCC1	> 200 µM			
O=C1c2ccccc2C(=O)N1CCSC(=S)N1CCCCCC1	63.6 µM			
O=C(NCCCCCCNC(=O)ON=C1CCCCC1)ON=C1CCCCC1		Active	75.2 µM	
O=C1c2ccccc2CN1CCSC(=S)N1CCOCC1	> 200 µM			
Cc1ccc(C(=O)Oc2ccc3ccc(O)cc3c2)cc1		Active	81.8 µM	
O=C(O)c1ccc(=S)n(CC(=O)c2ccccc2)c1		Active	98.3 µM	
O=C1c2ccccc2C(=O)N1CCSC(=S)N1CCOCC1	> 200 µM			
O=C1c2ccccc2CN1CCSC(=S)N1CCCC1	22.9 µM			
O=C1c2ccccc2CN1CCSC(=S)N1CCCCCC1	24.4 µM	Dose-dependent effect	20.1 µM	0.19 µM
